Laboratory results from ChEMBL document CHEMBL1158490, “Discovery of leukotriene A4 hydrolase inhibitors using metabolomics biased fragment crystallography” (J Med Chem, 2009).

Target: T1, Leukotriene A-4 hydrolase (Homo sapiens, UniProt P09960)
T1 sequence (P09960 whole entry): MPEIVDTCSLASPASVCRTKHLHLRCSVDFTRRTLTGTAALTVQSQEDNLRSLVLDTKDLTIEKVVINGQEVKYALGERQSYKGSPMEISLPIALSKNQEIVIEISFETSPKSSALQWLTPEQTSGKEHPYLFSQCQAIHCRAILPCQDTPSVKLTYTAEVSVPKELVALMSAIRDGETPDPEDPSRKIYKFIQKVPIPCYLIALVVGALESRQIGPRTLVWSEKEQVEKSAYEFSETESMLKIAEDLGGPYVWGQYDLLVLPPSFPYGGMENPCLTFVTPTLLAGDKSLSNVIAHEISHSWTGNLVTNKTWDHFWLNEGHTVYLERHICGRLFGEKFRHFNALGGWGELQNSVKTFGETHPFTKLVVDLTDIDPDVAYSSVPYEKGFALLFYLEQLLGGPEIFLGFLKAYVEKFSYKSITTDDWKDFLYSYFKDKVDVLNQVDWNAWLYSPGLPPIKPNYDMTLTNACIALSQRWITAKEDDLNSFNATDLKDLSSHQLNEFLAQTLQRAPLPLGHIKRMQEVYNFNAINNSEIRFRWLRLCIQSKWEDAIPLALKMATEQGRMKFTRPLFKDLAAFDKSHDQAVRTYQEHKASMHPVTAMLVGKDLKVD
Test: Inhibition of peptidase activity of human recombinant LTA4H expressed in Escherichia coli BL21-AI/pRARE

Structure (SMILES) | IC50 [µM]
c1ccc(NCc2cccnc2)cc1 | 1320
Oc1ccc2[nH]ccc2c1 | > 1000
CNCc1ccccc1-c1cccs1 | 1080
Fc1ccc2[nH]ccc2c1 | > 1000
OC(c1ccncc1)c1ccc(OCCN2CCCC2)cc1 (centres undefined) | 202
O=C(O)C1CCN(CCOc2ccc3[nH]ccc3c2)CC1 | 1490
c1cc2cc(OCCN3CCCC3)ccc2[nH]1 | 321
c1ccc(CNc2ccc(OC[C@H]3CCCN3)cc2)cc1 | 0.207
Oc1ccc(CCc2cc(O)cc(O)c2)cc1 [DIHYDRORESVERATROL] | 145
